# Source: US4077981A, “Certain 1-alkyl-2-dichlorophenyliminopyrrolidines” (Bayer Aktiengesellschaft, priority 1968, dated 1978)
# Tests used:
# Boophilus, Biarra strain = assay: In-vitro test for ovicidal and adulticidal effect on ticks; parameters: species or system Boophilus microplus
# Description: In-vitro test for ovicidal and adulticidal effect on ticks
# The ovicidal effect is determined as stated in Example 1.
# In addition, the adulticidal effectiveness of the preparation of the given active compound after 24 hours is determined by ascertaining the voluntary movement of limbs and bodies of the immersed adult ticks after stimulation with a fine needle compared with the voluntary movement of limbs and bodies of the untreated adult ticks. The effectiveness is stated in %, 100% meaning that no movements of any kind of the limbs and bodies were any longer detectable, and 0% signifying that the ticks moved limbs and bodies in normal manner.
# The results below were obtained in a similar manner to those in accordance with Example 4.
# [1] = tested on: Boophilus microplus, Biarra strain (resistant); assay: In-vitro test for ovicidal effect on ticks (Biarra strain); settings: Table 1b
# Description: (§1) In-vitro Test for Ovicidal Effect on Ticks
# The emulsion concentrate so obtained is diluted with water to the application concentration desired in each case.
# After immersion of, in each case, 10 female specimens of the various strains of ticks, the individual ticks are transferred to plastic dishes, the bottom of each of which is covered with a disc of filter paper.
# [2] = tested on: Boophilus microplus, Biarra strain; assay: In-vivo test against ticks on cattle; parameters: species or system Boophilus microplus (on cattle); settings: 0.3%
# Description: In-vivo test against ticks on cattle
# 3 parts of the particular active compound are mixed with 7 parts of a mixture of equal parts by weight of ethyleneglycol monomethyl ether and nonylphenyl polyglycol ether. The emulsion concentrate so obtained is diluted with water to the application concentration desired in each case.
# Cattle which have been infected (12 times at intervals of 2 days) with resistant larvae of ticks of the species Boophilus microplus, Biarra strain, are sprayed on the 24th day after the first infection with the preparation of the given active compound so obtained.
# The effect of the preparation of the given active compound is determined by ascertaining the number of adult female ticks which have reached development on the treated cattle and later lay viable eggs. This number is compared with the number of adult femal ticks which have reached development on untreated cattle.
# As a measure of the intensity of the infestation before treatment, there is used the number of adult females which reach development in the case of the treated and untreated animals in the last three days before the time of treatment.
# [3] = tested on: Boophilus microplus, Ridgeland strain (resistant); assay: In-vitro test for ovicidal effect on ticks (Ridgeland strain); settings: Table 1b, * Ridgeland strain
# Description: as §1
# 3 g of the particular active compound are mixed with 7 g of a mixture of equal parts by weight of ethyleneglycol monomethyl ether and nonylphenyl polyglycol ether. The emulsion concentrate so obtained is diluted with water to the application concentration desired in each case.
# Adult, fully engorged female ticks of the species Boophilus microplus (resistant) are immersed for 1 minute in this preparation of the given active compound. After immersion of, in each case, 10 female specimens of the various strains of ticks, the individual ticks are transferred to plastic dishes, the bottom of each of which is covered with a disc of filter paper. As a control, similar ticks of a normally sensitive strain are treated in exactly the same manner.
# After 35 days, the effectiveness of the preparation of the given active compound is determined by ascertaining the inhibition of the depositing of fertile eggs compared with the egg depositing of untreated control ticks. The effect is stated in %, 100% meaning that fertile eggs ceased to be deposited, and 0% signifying that the ticks have deposited eggs in normal manner like the untreated control ticks.
# [4] = Table 4, concentration giving 50% inhibition
# [5] = Table 4, concentration giving 100% inhibition
# [6] = Table 5, concentration giving 50% inhibition
# [7] = Table 5, concentration giving 100% inhibition
# [8] = concentration giving 100% inhibition
# [9] = concentration giving >50% inhibition
Compound,"Adulticidal and ovicidal effect: 50% inhibition with the stated concentration of active compound (Boophilus, Biarra strain; [4])","Adulticidal and ovicidal effect: 100% inhibition with the stated concentration of active compound (Boophilus, Biarra strain; [5])","Adulticidal and ovicidal effect: 50% inhibition with the stated concentration of active compound (Boophilus, Biarra strain; [6])","Adulticidal and ovicidal effect: 100% inhibition with the stated concentration of active compound (Boophilus, Biarra strain; [7])",further results
C=CCN1CCCC1=Nc1ccc(Cl)c(C)c1,0.02 % by weight,0.03 % by weight,–,–,–
CCCCN1CCCC1=Nc1ccc(C)c(Br)c1,–,–,0.02 % by weight,0.03 % by weight,–
CC=CCN1CCCC1=Nc1ccc(C)c(Cl)c1,–,–,0.008 % by weight,0.1 % by weight,–
C=C(C)CN1CCCC1=Nc1ccc(Cl)c(C)c1,–,–,0.01 % by weight,0.1 % by weight,–
CCCCN1CCCC1=Nc1ccc(Br)c(C)c1,–,–,0.05 % by weight,0.1 % by weight,–
CCN1CCCC1=Nc1ccc(Cl)c(Br)c1,0.05 % by weight,0.1 % by weight,–,–,–
CCCN1CCCC1=Nc1ccc(Cl)c(Br)c1,0.1 % by weight,0.3 % by weight,–,–,–
C=CCN1CCCC1=Nc1ccc(Cl)c(Cl)c1 [Compound 41],–,–,–,–,"Ovicidal effect: 100% inhibition with the stated concentration of active compound [1, 8]: 0.03 % by weight; Ovicidal effect: >50% inhibition with the stated concentration of active compound [1, 9]: 0.01 % by weight; Number of female adult ticks which reach development on the cattle ([2]; days after treatment +1+2+3): 0; Number of female adult ticks which reach development on the cattle ([2]; days after treatment +4+5+6): 0; Number of female adult ticks which reach development on the cattle ([2]; days after treatment +7+8+9): 7; Number of female adult ticks which reach development on the cattle ([2]; days after treatment +10+11+12): 6; Number of female adult ticks which reach development on the cattle ([2]; days after treatment +13+14+15): 4; Number of female adult ticks which reach development on the cattle ([2]; days after treatment +16+17+18): 0; Number of female adult ticks which reach development on the cattle ([2]; days after treatment +19+20+21): 0; Number of female adult ticks which reach development on the cattle ([2]; days before treatment -2 -1 0 (baseline)): 262; Total number of female adult ticks which reach development on the cattle ([2]; total 1-21 days): 17"
CC=CCN1CCCC1=Nc1ccc(Cl)c(Cl)c1,0.03 % by weight,0.01 % by weight,–,–,–
CC=CCN1CCCC1=Nc1ccc(Cl)cc1C,–,–,0.008 % by weight,0.01 % by weight,–
C=CCN1CCCC1=Nc1ccc(F)c(Cl)c1,0.08 % by weight,0.1 % by weight,–,–,–
CC=CCN1CCCC1=Nc1cc(Cl)c(Cl)cc1Cl,–,–,0.03 % by weight,0.1 % by weight,–
C=CCCN1CCCC1=Nc1ccc(Cl)c(Cl)c1,–,–,0.1 % by weight,0.3 % by weight,–
C=C(C)CN1CCCC1=Nc1ccc(C)c(Cl)c1,–,–,0.03 % by weight,0.1 % by weight,–
CCCCN1CCCC1=Nc1ccc(F)c(Cl)c1,0.03 % by weight,0.1 % by weight,–,–,–
CCCN1CCCC1=Nc1ccc(Cl)cc1C [Compound 211],–,–,–,–,"Ovicidal effect: 100% inhibition with the stated concentration of active compound [3, 8]: 0.1 % by weight; Ovicidal effect: >50% inhibition with the stated concentration of active compound [3, 9]: 0.03 % by weight"
C=C(C)CN1CCCC1=Nc1ccc(Cl)c(Cl)c1,–,–,0.03 % by weight,0.1 % by weight,–
